One assay deals with T1, human IR (hIR) (Homo sapiens, UniProt P06213).
T1 construct: containing amino acid residues 979-1382 of human IR; made in house; host or cells: Sf9 cells (baculovirus), same process as hIGF1R
In words: TR-FRET kinase assay of purified hIR. The format is biochemical. Conditions: activated hIR 0.5 nM, 10 μM ATP, values given as pIC50 category. On the technique in general: Time-resolved FRET reads energy transfer from a long-lived donor to a nearby acceptor.

In another assay the target is ALK (Homo sapiens, UniProt Q9UM73). In words: ALK enzyme assay (HTRF). Conditions: 0.25 nM ALK, 15.0 μM ATP, values given as pIC50 category. The format is biochemical. A digest of the protocol: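 Isolated ALK phosphorylates a biotinylated tyrosine peptide, 120 min at 20° C; anti-phosphotyrosine Eu-cryptate/streptavidin-XL665 HTRF read after 60 min with EDTA-containing detection mix.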

The target in assay [1] is T2, NIH-3T3 cells overexpressing human IR (Homo sapiens, UniProt P06213).
T2 construct: expressed in transfected cells; host or cells: NIH-3T3 (mouse fibroblasts)
In words: IR cellular autophosphorylation (DELFIA). In kind it is cell-based. Conditions: 2 h compound, insulin 3 ug/ml for 15 minutes, IC50 category. A digest of the protocol: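 Receptor autophosphorylation measured by DELFIA, capturing IGF-1R or IRβ and detecting with europium anti-pTyr, reported as percent of IGF-1- or insulin-stimulated signal. Compounds (30 uM to 1.5 nM) added 2 h before ligand, then 15 min stimulation (IGF-1 30 ng/ml or insulin 3 ug/ml).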

Each structure is given as a SMILES string. Several values for one entry are separate records, joined by “and”; a condition that tells them apart may be missing. Identical values can stand only once. A value given as a limit tells only on which side of the number the result lay.

T2 sequence (P06213 28-1382): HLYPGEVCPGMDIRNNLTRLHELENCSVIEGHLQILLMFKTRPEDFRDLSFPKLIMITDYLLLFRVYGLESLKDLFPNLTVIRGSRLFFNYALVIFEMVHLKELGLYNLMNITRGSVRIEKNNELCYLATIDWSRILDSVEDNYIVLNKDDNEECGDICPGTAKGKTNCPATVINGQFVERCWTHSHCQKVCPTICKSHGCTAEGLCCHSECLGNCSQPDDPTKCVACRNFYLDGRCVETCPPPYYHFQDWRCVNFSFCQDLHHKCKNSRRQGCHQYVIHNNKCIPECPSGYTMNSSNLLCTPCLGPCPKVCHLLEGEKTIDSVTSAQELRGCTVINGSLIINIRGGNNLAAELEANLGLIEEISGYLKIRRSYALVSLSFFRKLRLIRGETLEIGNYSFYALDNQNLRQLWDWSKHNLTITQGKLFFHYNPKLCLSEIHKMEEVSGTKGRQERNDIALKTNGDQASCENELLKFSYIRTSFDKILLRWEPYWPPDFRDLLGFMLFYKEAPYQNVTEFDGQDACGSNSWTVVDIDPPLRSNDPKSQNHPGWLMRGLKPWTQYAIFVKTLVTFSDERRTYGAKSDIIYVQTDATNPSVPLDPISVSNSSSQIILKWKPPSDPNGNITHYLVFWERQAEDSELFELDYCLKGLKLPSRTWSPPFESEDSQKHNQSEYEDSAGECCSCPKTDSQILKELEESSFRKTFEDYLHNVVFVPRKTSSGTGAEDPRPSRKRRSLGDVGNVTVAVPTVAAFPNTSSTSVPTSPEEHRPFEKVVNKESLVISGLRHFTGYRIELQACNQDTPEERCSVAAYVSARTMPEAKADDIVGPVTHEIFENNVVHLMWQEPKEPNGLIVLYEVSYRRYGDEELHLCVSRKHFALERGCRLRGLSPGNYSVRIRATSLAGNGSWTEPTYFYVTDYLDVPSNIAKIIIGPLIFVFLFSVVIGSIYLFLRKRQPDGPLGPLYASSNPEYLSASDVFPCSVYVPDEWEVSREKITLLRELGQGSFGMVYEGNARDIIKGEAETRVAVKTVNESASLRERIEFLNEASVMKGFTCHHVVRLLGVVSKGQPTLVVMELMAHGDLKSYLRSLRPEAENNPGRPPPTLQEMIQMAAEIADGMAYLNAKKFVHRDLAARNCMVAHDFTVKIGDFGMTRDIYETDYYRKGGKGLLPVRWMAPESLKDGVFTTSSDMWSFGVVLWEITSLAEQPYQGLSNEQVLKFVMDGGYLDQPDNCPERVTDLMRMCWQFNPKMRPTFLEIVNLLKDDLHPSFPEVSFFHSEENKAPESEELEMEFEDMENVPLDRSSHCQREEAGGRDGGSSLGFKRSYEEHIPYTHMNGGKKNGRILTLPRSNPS
Sequence of ALK (Q9UM73 19-1620): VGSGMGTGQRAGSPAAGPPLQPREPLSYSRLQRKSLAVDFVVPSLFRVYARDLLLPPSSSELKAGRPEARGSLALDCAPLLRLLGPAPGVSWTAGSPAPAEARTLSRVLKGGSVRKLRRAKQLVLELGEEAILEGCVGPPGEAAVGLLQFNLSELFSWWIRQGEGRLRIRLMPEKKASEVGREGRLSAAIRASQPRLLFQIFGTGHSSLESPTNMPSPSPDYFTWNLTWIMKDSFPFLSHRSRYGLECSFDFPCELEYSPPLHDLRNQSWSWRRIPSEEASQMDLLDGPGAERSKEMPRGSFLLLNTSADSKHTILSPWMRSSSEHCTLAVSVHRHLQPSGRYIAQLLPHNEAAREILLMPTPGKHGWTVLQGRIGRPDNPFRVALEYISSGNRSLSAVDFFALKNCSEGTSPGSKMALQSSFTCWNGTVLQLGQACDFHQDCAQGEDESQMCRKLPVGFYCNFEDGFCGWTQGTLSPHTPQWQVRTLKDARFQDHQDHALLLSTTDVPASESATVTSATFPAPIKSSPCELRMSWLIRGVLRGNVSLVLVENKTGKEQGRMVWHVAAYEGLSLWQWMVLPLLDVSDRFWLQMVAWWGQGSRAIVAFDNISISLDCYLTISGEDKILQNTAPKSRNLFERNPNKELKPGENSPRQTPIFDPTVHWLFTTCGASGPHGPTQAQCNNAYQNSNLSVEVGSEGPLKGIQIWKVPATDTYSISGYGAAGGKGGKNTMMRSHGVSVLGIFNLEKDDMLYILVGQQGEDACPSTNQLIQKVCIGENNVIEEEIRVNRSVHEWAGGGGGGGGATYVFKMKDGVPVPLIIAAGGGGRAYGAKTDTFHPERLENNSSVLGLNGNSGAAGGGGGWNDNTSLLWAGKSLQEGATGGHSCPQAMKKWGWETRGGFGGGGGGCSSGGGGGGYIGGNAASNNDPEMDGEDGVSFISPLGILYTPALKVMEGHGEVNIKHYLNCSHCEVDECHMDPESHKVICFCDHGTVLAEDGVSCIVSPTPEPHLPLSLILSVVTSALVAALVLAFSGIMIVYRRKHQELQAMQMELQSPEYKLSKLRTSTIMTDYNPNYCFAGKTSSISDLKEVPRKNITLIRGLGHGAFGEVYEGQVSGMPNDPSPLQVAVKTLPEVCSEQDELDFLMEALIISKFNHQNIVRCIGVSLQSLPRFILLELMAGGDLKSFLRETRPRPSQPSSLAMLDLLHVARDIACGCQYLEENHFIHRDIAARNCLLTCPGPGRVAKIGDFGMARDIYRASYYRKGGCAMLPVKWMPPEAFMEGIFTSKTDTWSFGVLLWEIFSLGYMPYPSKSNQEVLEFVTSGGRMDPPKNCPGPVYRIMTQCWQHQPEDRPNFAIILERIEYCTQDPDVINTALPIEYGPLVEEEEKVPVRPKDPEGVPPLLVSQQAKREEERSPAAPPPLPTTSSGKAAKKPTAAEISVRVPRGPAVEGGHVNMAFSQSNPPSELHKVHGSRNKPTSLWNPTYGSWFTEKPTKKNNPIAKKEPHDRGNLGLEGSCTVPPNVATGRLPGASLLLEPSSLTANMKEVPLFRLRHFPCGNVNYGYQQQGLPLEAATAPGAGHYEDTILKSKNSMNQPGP
T1 sequence (P06213 979-1382): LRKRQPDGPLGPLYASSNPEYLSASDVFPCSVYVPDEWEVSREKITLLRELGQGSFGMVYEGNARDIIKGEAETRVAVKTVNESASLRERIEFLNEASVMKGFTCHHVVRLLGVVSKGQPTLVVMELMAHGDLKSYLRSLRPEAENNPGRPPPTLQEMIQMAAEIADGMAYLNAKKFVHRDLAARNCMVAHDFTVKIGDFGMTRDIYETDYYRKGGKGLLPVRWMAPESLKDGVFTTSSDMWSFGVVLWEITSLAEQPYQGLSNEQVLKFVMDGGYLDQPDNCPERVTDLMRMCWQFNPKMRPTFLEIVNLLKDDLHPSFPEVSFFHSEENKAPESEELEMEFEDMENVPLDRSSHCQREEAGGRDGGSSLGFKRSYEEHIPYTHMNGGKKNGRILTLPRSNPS

Turning to `COc1cc(N2CCOCC2)ccc1Nc1nc(Nc2cc(F)ccc2C(N)=O)c2cc[nH]c2n1` [Example 83, 4-fluoro-2-[(2-{[2-(methyloxy)-4-(4-morpholinyl)phenyl]amino}-1H-pyrrolo[2,3-d]pyrimidin-4-yl)amino]benzamide], the half-inhibitory concentration (IC50) (usually the concentration that gives 50% inhibition) at human IR (hIR) is 1.26 to 3.98 nM; on ALK it was 5.01 to 200 nM; in assay [1], < 100 nM.

Take `COc1cc(N2CCC(C3CCN(CCS(C)(=O)=O)CC3)CC2)ccc1Nc1nc(Nc2cccc(F)c2C(N)=O)c2cc[nH]c2n1` [Example 112, 2-fluoro-6-({2-[(2-(methyloxy)-4-{1′-[2-(methylsulfonyl)ethyl]-4,4′-bipiperidin-1-yl}phenyl)amino]-1H-pyrrolo[2,3-d]pyrimidin-4-yl}amino)benzamide]: the IC50 against human IR (hIR) is 1.26 to 3.98 nM; against ALK it was 0.251 to 1 nM.

In the case of `CCCN1CCC=C(c2ccc(Nc3nc(Nc4cc(F)ccc4C(=O)N[C@@H](C)CC)c4cc[nH]c4n3)c(OC)c2)C1` [Example 87, 4-fluoro-2-[(2-{[2-(methyloxy)-4-(1-propyl-1,2,5,6-tetrahydro-3-pyridinyl)phenyl]amino}-1H-pyrrolo[2,3-d]pyrimidin-4-yl)amino]-N-[(1S)-1-methylpropyl]benzamide], the values for the half-maximal inhibitory concentration (IC50) (against human IR (hIR); against ALK; in assay [1]) were 1.26 to 3.98 nM, 0.251 to 1 nM and > 500 nM, respectively.

On to `COc1cc(N2CCOC[C@@H]2C)ccc1Nc1nc(Nc2cccc(F)c2C(N)=O)c2cc[nH]c2n1` [Example 49, 2-fluoro-6-[(2-{[4-[(3S)-3-methyl-4-morpholinyl]-2-(methyloxy)phenyl]amino}-1H-pyrrolo[2,3-d]pyrimidin-4-yl)amino]benzamide], for which the values for the half-inhibitory concentration (IC50) (against human IR (hIR); against ALK; in assay [1]) were 1.26 to 3.98 nM, 1.26 to 3.98 nM and 100 to 500 nM, respectively.

Turning to `COc1cc(N2CCC(N3CC[C@H](F)C3)CC2)ccc1Nc1nc(Nc2cccc(F)c2C(N)=O)c2cc[nH]c2n1` [Example 43, 2-fluoro-6-[(2-{[4-{4-[(3S)-3-fluoro-1-pyrrolidinyl]-1-piperidinyl}-2-(methyloxy)phenyl]amino}-1H-pyrrolo[2,3-d]pyrimidin-4-yl)amino]benzamide], the IC50 at human IR (hIR) is 1.26 to 3.98 nM; on ALK, 1.26 to 3.98 nM; in assay [1] it was 100 to 500 nM.

Turning to `CNC(=O)c1c(F)cccc1Nc1nc(Nc2cc3c(cc2OC)C(C)(C)CN3C(=O)CN(C)C)nc2[nH]ccc12` [Example 127, 2-[(2-{[1-(N,N-dimethylglycyl)-3,3-dimethyl-5-(methyloxy)-2,3-dihydro-1H-indol-6-yl]amino}-1H-pyrrolo[2,3-d]pyrimidin-4-yl)amino]-6-fluoro-N-methylbenzamide], the IC50 is 1.26 to 3.98 nM against human IR (hIR), 0.251 to 1 nM against ALK and < 100 nM in assay [1].

For `CCCN1CCC=C(c2ccc(Nc3nc(Nc4cc(F)ccc4C(N)=O)c4cc[nH]c4n3)c(OC)c2)C1` [Example 70, 4-fluoro-2-[(2-{[2-(methyloxy)-4-(1-propyl-1,2,5,6-tetrahydro-3-pyridinyl)phenyl]amino}-1H-pyrrolo[2,3-d]pyrimidin-4-yl)amino]benzamide], the IC50 is 0.251 to 1 nM on human IR (hIR), 0.251 to 1 nM at ALK and < 100 nM in assay [1].

Take `COc1cc(N2CCC(N3CC[C@@H](F)C3)CC2)ccc1Nc1nc(Nc2cccc(F)c2C(N)=O)c2cc[nH]c2n1` [Example 44, 2-fluoro-6-[(2-{[4-{4-[(3R)-3-fluoro-1-pyrrolidinyl]-1-piperidinyl}-2-(methyloxy)phenyl]amino}-1H-pyrrolo[2,3-d]pyrimidin-4-yl)amino]benzamide]: the half-inhibitory concentration (IC50) on human IR (hIR) is 1.26 to 3.98 nM; at ALK it was 1.26 to 3.98 nM; in assay [1] it was > 500 nM.

Take `COc1cc(N2CCC(N3CC[C@@H](F)C3)CC2)ccc1Nc1nc(Nc2cc(F)ccc2C(N)=O)c2cc[nH]c2n1` [Example 76, 4-fluoro-2-[(2-{[4-{4-[(3R)-3-fluoro-1-pyrrolidinyl]-1-piperidinyl}-2-(methyloxy)phenyl]amino}-1H-pyrrolo[2,3-d]pyrimidin-4-yl)amino]benzamide]: the concentration for half-maximal inhibition (IC50) is 0.251 to 1 nM against human IR (hIR), 1.26 to 3.98 nM on ALK and 100 to 500 nM in assay [1].

In the case of `CCCN(C)CC(=O)N1CCc2cc(OC)c(Nc3nc(Nc4cccc(F)c4C(=O)NC)c4cc[nH]c4n3)cc21` [Example 167, 2-fluoro-N-methyl-6-[(2-{[5-(methyloxy)-1-(N-methyl-N-propylglycyl)-2,3-dihydro-1H-indol-6-yl]amino}-1H-pyrrolo[2,3-d]pyrimidin-4-yl)amino]benzamide], the half-inhibitory concentration (IC50) was 1.26 to 3.98 nM against human IR (hIR); 1.26 to 3.98 nM and 0.251 to 1 nM against ALK; 100 to 500 nM in assay [1].

Regarding `COc1cc(N2CCC(N3CCN(S(C)(=O)=O)CC3)CC2)ccc1Nc1nc(Nc2cccc(F)c2C(N)=O)c2cc[nH]c2n1` [Example 113, 2-fluoro-6-({2-[(2-(methyloxy)-4-{4-[4-(methylsulfonyl)-1-piperazinyl]-1-piperidinyl}phenyl)amino]-1H-pyrrolo[2,3-d]pyrimidin-4-yl}amino)benzamide], the IC50 is 0.251 to 1 nM on human IR (hIR), 0.251 to 1 nM on ALK and 100 to 500 nM in assay [1].

With `CN(C)CC(=O)Nc1ccc(Cl)c(Nc2nc(Nc3ccccc3C(N)=O)c3cc[nH]c3n2)c1` [Example 18, 2-{[2-({2-chloro-5-[(N,N-dimethylglycyl)amino]phenyl}amino)-1H-pyrrolo[2,3-d]pyrimidin-4-yl]amino}benzamide], the values for the concentration for half-maximal inhibition (IC50) on human IR (hIR) and at ALK were 0.251 to 1 nM and 1.26 to 3.98 nM, respectively.

Turning to `COc1cc(N2CCN(CCS(C)(=O)=O)CC2)c(C)cc1Nc1nc(Nc2cccc(F)c2C(N)=O)c2cc[nH]c2n1` [Example 52, 2-fluoro-6-({2-[(5-methyl-2-(methyloxy)-4-{4-[2-(methylsulfonyl)ethyl]-1-piperazinyl}phenyl)amino]-1H-pyrrolo[2,3-d]pyrimidin-4-yl}amino)benzamide], the figures for the IC50 (against ALK; in assay [1]) were 1.26 to 3.98 nM and > 500 nM, respectively.

Take `COc1cc(N2CCC(N3CCCCC3)CC2)ccc1Nc1nc(Nc2cc(F)c(F)cc2C(N)=O)c2cc[nH]c2n1` [Example 100, 2-[(2-{[4-(1,4′-bipiperidin-1′-yl)-2-(methyloxy)phenyl]amino}-1H-pyrrolo[2,3-d]pyrimidin-4-yl)amino]-4,5-difluorobenzamide]: the IC50 against human IR (hIR) and at ALK was 0.251 to 1 nM each time.

For the compound `COc1cc(N2CCN(C(C)C)CC2)ccc1Nc1nc(Nc2ccc(Br)cc2C(N)=O)c2cc[nH]c2n1` [Example 68, 5-bromo-2-[(2-{[4-[4-(1-methylethyl)-1-piperazinyl]-2-(methyloxy)phenyl]amino}-1H-pyrrolo[2,3-d]pyrimidin-4-yl)amino]benzamide], the IC50 on human IR (hIR) and on ALK was 0.251 to 1 nM each time.

`COc1ccc(N2CCN(C)CC2)cc1Nc1nc(Nc2ccccc2C(N)=O)c2cc[nH]c2n1` [Example 9, 2-[(2-{[2-(methyloxy)-5-(4-methyl-1-piperazinyl)phenyl]amino}-1H-pyrrolo[2,3-d]pyrimidin-4-yl)amino]benzamide]: the half-inhibitory concentration (IC50) against human IR (hIR) and against ALK was 1.26 to 3.98 nM each time.

Regarding `COc1cc(N2CCOCC2)ccc1Nc1nc(Nc2cc(F)c(F)cc2C(N)=O)c2cc[nH]c2n1` [Example 104, 4,5-difluoro-2-[(2-{[2-(methyloxy)-4-(4-morpholinyl)phenyl]amino}-1H-pyrrolo[2,3-d]pyrimidin-4-yl)amino]benzamide], the results for the IC50 against human IR (hIR) and on ALK were 0.251 to 1 nM and 1.26 to 3.98 nM, respectively.

For `COc1cc(N2CCN(C(C)C)CC2)ccc1Nc1nc(Nc2cccc(F)c2C(N)=O)c2cc[nH]c2n1` [Example 46, 2-fluoro-6-[(2-{[4-[4-(1-methylethyl)-1-piperazinyl]-2-(methyloxy)phenyl]amino}-1H-pyrrolo[2,3-d]pyrimidin-4-yl)amino]benzamide], the IC50 at ALK was 0.251 to 1 nM; in assay [1], 100 to 500 nM.

Turning to `COc1cc(N2CCC(N3CCOCC3)CC2)ccc1Nc1nc(Nc2ccc(F)cc2C(N)=O)c2cc[nH]c2n1` [Example 59, 5-fluoro-2-{[2-({2-(methyloxy)-4-[4-(4-morpholinyl)-1-piperidinyl]phenyl}amino)-1H-pyrrolo[2,3-d]pyrimidin-4-yl]amino}benzamide], the half-inhibitory concentration (IC50) against human IR (hIR) and at ALK was 0.251 to 1 nM in each case.

With `COc1cc(N2CCC(O)CC2)ccc1Nc1nc(Nc2cc(F)c(F)cc2C(N)=O)c2cc[nH]c2n1` [Example 99], the half-inhibitory concentration (IC50) against human IR (hIR) and against ALK was 0.251 to 1 nM in each case.

On to `COc1c(Nc2nc(Nc3cccc(F)c3C(N)=O)c3cc[nH]c3n2)ccc(N2CCN(C(C)C)CC2)c1F` [Example 51, 2-fluoro-6-[(2-{[3-fluoro-4-[4-(1-methylethyl)-1-piperazinyl]-2-(methyloxy)phenyl]amino}-1H-pyrrolo[2,3-d]pyrimidin-4-yl)amino]benzamide], for which the IC50 on ALK was 1.26 to 3.98 nM; in assay [1], > 500 nM.

`COc1cc(N2CCN(C(C)C)CC2)c(F)cc1Nc1nc(Nc2cccc(F)c2C(N)=O)c2cc[nH]c2n1` [Example 48, 2-fluoro-6-[(2-{[5-fluoro-4-[4-(1-methylethyl)-1-piperazinyl]-2-(methyloxy)phenyl]amino}-1H-pyrrolo[2,3-d]pyrimidin-4-yl)amino]benzamide]: the IC50 at ALK is 0.251 to 1 nM; in assay [1], < 100 nM.
